Laboratory results from PMC6684654 (Nature Communications, 2019).
In brackets after ≈: the same amount, converted by molar mass. Several values for one entry are separate records, joined by “and”; a condition that tells them apart may be missing. Identical values can stand only once. Like-named read-outs stand apart in the source and are kept apart here. Bridge positions count the residues as written; N and C are the ends. Ends that are not written are not given here.

Assays:
E. coli ATCC25922 [1] = test: MIC, broth microdilution; type: cell-based; conditions: Escherichia coli
Text: (§1) MIC values were identified through microdilution in sterilized 96-well polypropylene microtiter plates according to the broth microdilution guideline of the Clinical and Laboratory Standards Institute[30]. The test medium was Mueller–Hinton broth (MHB), and the strain concentrations were adjusted to 5 × 10^5 CFU/mL.

E. coli ATCC35218 = test: MIC, broth microdilution; type: cell-based; conditions: Escherichia coli
Text: as §1

K. pneumoniae ATCC13883 [2] = test: MIC, broth microdilution; type: cell-based; conditions: Klebsiella pneumoniae
Text: as §1

NDM-1 E. coli XJ141015 [3] = test: MIC, broth microdilution; type: cell-based; conditions: Escherichia coli; MHB, 5 × 10^5 CFU/mL, 16 h, 37 °C; read-out: MIC
Text: as §1

NDM-1 E. coli XJ141026 [4] = test: MIC, broth microdilution; type: cell-based; conditions: Escherichia coli; MHB, 5 × 10^5 CFU/mL, 16 h, 37 °C; read-out: MIC
Text: as §1

NDM-1 E. coli XJ141047 [5] = test: MIC, broth microdilution; type: cell-based; conditions: Escherichia coli; MHB, 5 × 10^5 CFU/mL, 16 h, 37 °C; read-out: MIC
Text: as §1

[6] = test system: NDM-1 K. pneumoniae XJ155017; test: MIC, broth microdilution; type: cell-based; conditions: Klebsiella pneumoniae, 16 h
Text: as §1

[7] = test system: NDM-1 K. pneumoniae XJ155018; test: MIC, broth microdilution; type: cell-based; conditions: Klebsiella pneumoniae, 16 h
Text: as §1

[8] = test system: NDM-1 K. pneumoniae XJ155019; test: MIC, broth microdilution; type: cell-based; conditions: Klebsiella pneumoniae, 16 h
Text: as §1

[9] = test system: NDM-1 K. pneumoniae XJ155020; test: MIC, broth microdilution; type: cell-based; conditions: Klebsiella pneumoniae, 16 h
Text: as §1

E. coli ATCC25922 [10] = test: Antibiotic susceptibility (MIC), automated identification system; type: cell-based; conditions: Supplementary Table 1; for MIC: Escherichia coli, ATCC25922
Text: (§2) Clinical isolate strains were identified and screened by the Phoenix 100 automated bacterial identification system to rapidly detect antimicrobial resistance. Total DNA was extracted by the TIANamp Bacteria DNA Kit according to the manufacturer’s protocol. The presence of blaNDM-1 was confirmed using a diagnostic kit for NDM-1 (Puruikang Bio Inc., Shenzhen, China) based on fluorescent quantitative polymerase chain reaction assay. According to the instruction, Ct values of less than 37 were considered positive.

K. pneumoniae ATCC13883 [11] = test: as above; type: cell-based; conditions: Supplementary Table 2; for MIC: Klebsiella pneumoniae, ATCC13883
Text: as §2

NDM-1 E. coli XJ141015 [12] = test: as above; type: cell-based; conditions: Supplementary Table 1; for MIC: Escherichia coli
Text: as §2

NDM-1 E. coli XJ141026 [13] = test: as above; type: cell-based; conditions: Supplementary Table 1; for MIC: Escherichia coli
Text: as §2

NDM-1 E. coli XJ141047 [14] = test: as above; type: cell-based; conditions: Supplementary Table 1; for MIC: Escherichia coli
Text: as §2

[15] = test system: NDM-1 K. pneumoniae XJ155017; test: as above; type: cell-based; conditions: Supplementary Table 2; for MIC: Klebsiella pneumoniae
Text: as §2

[16] = test system: NDM-1 K. pneumoniae XJ155018; test: as above; type: cell-based; conditions: Supplementary Table 2; for MIC: Klebsiella pneumoniae
Text: as §2

[17] = test system: NDM-1 K. pneumoniae XJ155019; test: as above; type: cell-based; conditions: Supplementary Table 2; for MIC: Klebsiella pneumoniae
Text: as §2

[18] = test system: NDM-1 K. pneumoniae XJ155020; test: as above; type: cell-based; conditions: Supplementary Table 2; for MIC: Klebsiella pneumoniae
Text: as §2

[19] = test system: seven NDM-1-producing strains; test: Checkerboard assay / FIC, summary; type: cell-based, E. coli; K. pneumoniae; conditions: in combination with thanatin
Protocol: (§3) Synergy in vitro was assessed by checkerboard assays. […] Following incubation, the synergistic/additive effect was determined by calculating the FIC indices (FICI) according to the formula: FICI = (MIC of A in combination/MIC of A) + (MIC of B in combination/MIC of B). The synergy or additive was defined according to standard criteria (FICI ≤ 0.5 was defined as synergistic; 0.5 < FICI ≤ 1 was defined as additive; 1 < FICI ≤ 4 was defined as indifference; FICI > 4 was defined as antagonism)[39].

[20] = test system: NDM-1-producing E. coli XJ141026; test: Bactericidal activity of combination treatment; type: cell-based; conditions: Tha 0.4 μM, alone or combined, 16 h
Protocol: The kill curves were determined as mentioned above to investigate the bactericidal activity of the combination treatment. […] CFUs were counted.

NDM-1 [21] = biological target: T1, NDM-1 (Klebsiella pneumoniae, UniProt C7C422); conditions: NDM-1/Imipenem
T1 sequence (C7C422 20-270, looked up, natural form): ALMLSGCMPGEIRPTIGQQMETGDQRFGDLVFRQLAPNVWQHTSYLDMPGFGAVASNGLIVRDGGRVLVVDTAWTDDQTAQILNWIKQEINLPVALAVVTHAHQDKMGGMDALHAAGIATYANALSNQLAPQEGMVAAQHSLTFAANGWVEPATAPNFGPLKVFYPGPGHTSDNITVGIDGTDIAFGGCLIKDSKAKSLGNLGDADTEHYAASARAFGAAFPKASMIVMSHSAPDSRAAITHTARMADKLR
Protocol: The change in absorbance at 300 nm was monitored for 30 min in 96-well plates at 30 °C. The initial rate of reaction for each inhibitor concentration was calculated from the slope of the initial linear phase of the respective time course. The IC50 value was obtained by plotting the residual enzyme activity on imipenem (%) vs. inhibitor concentration (log10). […] The best fits were obtained with the competitive inhibition model by using the equation V0 = (Vmax × [S]) / (Km × (1 + [I] / Ki) + [S]). […] The kinetics parameters Km/Vmax/Kcat were calculated by fitting the data into the double reciprocal Lineweaver–Burk plots. GraphPad 5.0 was used for data analysis.

NDM-1 [22] = biological target: T1, NDM-1; conditions: reported Km for imipenem; ref 15 (Yuan Q, He L, Ke H, 2012); cited from earlier work
NDM-1 E. coli XJ141026 [23] = test: Checkerboard assay / FIC; type: cell-based; conditions: Escherichia coli
Protocol: as §3

[24] = test system: E. coli XJ141026-infected BALB/c mice; test: Thanatin + meropenem in sepsis model: survival; type: in vivo, mouse (E. coli infection); conditions: alone or combined, single i.p. dose, n = 14
Protocol: BALB/c mice were infected intraperitoneally with 8 × 10^7 CFU of E. coli XJ141026 in 0.1 mL of MHB. […] The model group was intraperitoneally injected with an equivalent volume of PBS. […] In addition, the survival rates were detected as described above.

[25] = biological target: T2, New Delhi metallo-β-lactamase-1 (NDM-1), without signal peptide, amino-terminal histidine tag (RED-tris-NTA second-generation dye on the His-tag (in the MST assay)); test: cell-based or functional assay
T2 chain: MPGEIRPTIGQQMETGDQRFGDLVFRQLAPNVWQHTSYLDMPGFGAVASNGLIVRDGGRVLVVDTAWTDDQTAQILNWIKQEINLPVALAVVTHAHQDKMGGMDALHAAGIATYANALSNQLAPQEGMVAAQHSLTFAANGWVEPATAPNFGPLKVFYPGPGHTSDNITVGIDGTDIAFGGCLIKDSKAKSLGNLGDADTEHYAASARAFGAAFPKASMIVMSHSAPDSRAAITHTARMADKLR

[26] = biological target: T2, New Delhi metallo-β-lactamase-1 …; test: MST; RED-tris-NTA-labelled apo-NDM-1 (100 nM, mixed 1:1) with serially diluted thanatin; 50 mM HEPES pH 6.8, 0.05% Tween-20; 30 min at room temperature; Monolith NT.115 Pico, medium MST power; conditions: both partners purified
[27] = biological target: T2, New Delhi metallo-β-lactamase-1 …; test: enzyme inhibition kinetics; 1 nM purified NDM-1 with 10 μM ZnSO4, pre-incubated 20 min at 30 °C with thanatin; imipenem 100-1600 μM; initial rates fitted to the competitive inhibition model; 50 mM HEPES, 0.05% Tween-20; conditions: both partners purified
[28] = MHB, 5 × 10^5 CFU/mL, 37 °C, read-out: MIC

C[C@@H](O)[C@H]1C(=O)N2C(C(=O)O)=C(SCCN=CN)C[C@H]12 [Imipenem]
MIC (E. coli ATCC25922 [1]; ATCC25922, MHB, 5 × 10^5 CFU/mL, 16 h, 37 °C, read-out: MIC): < 0.125 µg/mL | MIC (E. coli ATCC35218; ATCC35218, MHB, 5 × 10^5 CFU/mL, 16 h, 37 °C, read-out: MIC): < 0.125 µg/mL | MIC (K. pneumoniae ATCC13883 [2]; ATCC13883, MHB, 5 × 10^5 CFU/mL, 16 h, 37 °C, read-out: MIC): < 0.125 µg/mL | MIC (NDM-1 E. coli XJ141015 [3]): 16 µg/mL (≈ 53.4 µM) | MIC (NDM-1 E. coli XJ141026 [4]): 16 µg/mL (≈ 53.4 µM) | MIC (NDM-1 E. coli XJ141047 [5]): 32 µg/mL (≈ 107 µM) | MIC [6, 28]: > 256 µg/mL | MIC [7, 28]: 32 µg/mL (≈ 107 µM) | MIC [8]: 128 µg/mL (≈ 428 µM) | MIC [9]: 128 µg/mL (≈ 428 µM) | MIC (E. coli ATCC25922 [10]): ≤ 1 µg/mL | susceptibility class (MIC) (E. coli ATCC25922 [10]): S | MIC (K. pneumoniae ATCC13883 [11]): ≤ 1 µg/mL | susceptibility class (MIC) (K. pneumoniae ATCC13883 [11]): S | MIC (NDM-1 E. coli XJ141015 [12]): > 8 µg/mL | susceptibility class (MIC) (NDM-1 E. coli XJ141015 [12]): R | MIC (NDM-1 E. coli XJ141026 [13]): > 8 µg/mL | susceptibility class (MIC) (NDM-1 E. coli XJ141026 [13]): R | MIC (NDM-1 E. coli XJ141047 [14]): > 8 µg/mL | susceptibility class (MIC) (NDM-1 E. coli XJ141047 [14]): R | MIC [15]: > 8 µg/mL | susceptibility class (MIC) [15]: R | MIC [16]: > 8 µg/mL | susceptibility class (MIC) [16]: R | MIC [17]: > 8 µg/mL | susceptibility class (MIC) [17]: R | MIC [18]: > 8 µg/mL | susceptibility class (MIC) [18]: R | FIC indices, all seven strains [19]: ≤ 1 | effect of combination [19]: synergistic or additive | bacterial count ([20]; Imp 25 μM, replicate 1, listed as Imp): 2.00E+11 CFU/mL and 11.30 Log10(CFU/mL) | bacterial count ([20]; Imp 25 μM, replicate 2, listed as Imp): 9.50E+11 CFU/mL and 11.98 Log10(CFU/mL) | bacterial count ([20]; Imp 25 μM, replicate 3, listed as Imp): 7.41E+10 CFU/mL and 10.87 Log10(CFU/mL) | bacterial count ([20]; Imp 25 μM, replicate 4, listed as Imp): 5.75E+11 CFU/mL and 11.76 Log10(CFU/mL) | Kcat (NDM-1 [21]): 130.40 ± 2.67 s⁻¹ | Km (NDM-1 [21]): 104 µM | Vmax (NDM-1 [21]): 0.13 ± 0.03 µM/s | Km (NDM-1 [22]): 94 µM

C[C@@H](O)[C@H]1C(=O)N2C(C(=O)O)=C(S[C@@H]3CN[C@H](C(=O)N(C)C)C3)[C@H](C)[C@H]12 [Meropenem]
MIC (E. coli ATCC25922 [1]; ATCC25922, 16 h): < 0.125 µg/mL | MIC (E. coli ATCC35218; ATCC35218, 16 h): < 0.125 µg/mL | MIC (K. pneumoniae ATCC13883 [2]; ATCC13883, 16 h): < 0.125 µg/mL | MIC (NDM-1 E. coli XJ141015 [3]): 64 µg/mL (≈ 167 µM) | MIC (NDM-1 E. coli XJ141026 [4]): 64 µg/mL (≈ 167 µM) | MIC (NDM-1 E. coli XJ141047 [5]): 64 µg/mL (≈ 167 µM) | MIC [6]: > 256 µg/mL | MIC [7]: 128 µg/mL (≈ 334 µM) | MIC [8]: 128 µg/mL (≈ 334 µM) | MIC [9]: 128 µg/mL (≈ 334 µM) | MIC (E. coli ATCC25922 [10]): ≤ 1 µg/mL | susceptibility class (MIC) (E. coli ATCC25922 [10]): S | MIC (K. pneumoniae ATCC13883 [11]): ≤ 1 µg/mL | susceptibility class (MIC) (K. pneumoniae ATCC13883 [11]): S | MIC (NDM-1 E. coli XJ141015 [12]): > 8 µg/mL | susceptibility class (MIC) (NDM-1 E. coli XJ141015 [12]): R | MIC (NDM-1 E. coli XJ141026 [13]): > 8 µg/mL | susceptibility class (MIC) (NDM-1 E. coli XJ141026 [13]): R | MIC (NDM-1 E. coli XJ141047 [14]): > 8 µg/mL | susceptibility class (MIC) (NDM-1 E. coli XJ141047 [14]): R | MIC [15]: > 8 µg/mL | susceptibility class (MIC) [15]: R | MIC [16]: > 8 µg/mL | susceptibility class (MIC) [16]: R | MIC [17]: > 8 µg/mL | susceptibility class (MIC) [17]: R | MIC [18]: > 8 µg/mL | susceptibility class (MIC) [18]: R | MIC (NDM-1 E. coli XJ141026 [23]; in the presence of sub-MIC thanatin): 18 µM | MIC (NDM-1 E. coli XJ141026 [23]; meropenem alone): 144 µM | FIC indices, all seven strains [19]: ≤ 1 | effect of combination [19]: synergistic or additive | bacterial count ([20]; Mem 18 μM, replicate 1, listed as Mem): 11.61 Log10(CFU/mL) and 4.04E+11 CFU/mL | bacterial count ([20]; Mem 18 μM, replicate 2, listed as Mem): 12.11 Log10(CFU/mL) and 1.30E+12 CFU/mL | bacterial count ([20]; Mem 18 μM, replicate 3, listed as Mem): 11.93 Log10(CFU/mL) and 8.52E+11 CFU/mL | bacterial count ([20]; Mem 18 μM, replicate 4, listed as Mem): 10.88 Log10(CFU/mL) and 7.65E+10 CFU/mL | Survival (number of mice) ([24]; Tha 0.1 mg/kg, Mem 10 mg/kg, Day 7): 4 | survival rate ([24]; thanatin 0.1 mg/kg, meropenem 10 mg/kg): 30%

B1: Thanatin (peptide)
peptide: GSKKPVPIIYCNRRTGKCQRM
modifications: disulfide 11-18
notes: thanatin, inducible 21-residue insect peptide; source: synthetic peptide (solid-phase, Fmoc), purified by reverse-phase HPLC to over 98%
inhibition of imipenem hydrolysis by purified NDM-1 (1 nM enzyme, 100 μM imipenem, 12 concentrations of thanatin), IC50 [25]: 3.21 µM | Kd [26]: ~710 nM | Ki [27]: 2840 nM
